Assay results published in a melting point compilation (Tetko et al.; mined from patent text by program, amines drawn as free bases though some values may be those of a salt).

| SMILES | melting point |
| --- | --- |
| COc1cc(OC)c(NC(=O)[C@H](Cc2ccc(OCc3ccccc3)cc2)NC(=O)OC(C)(C)C)c(OC)c1 | 89 to 95 °C |
| COc1ccc(Nc2ccnc(Nc3cc(OC)c(OC)c(OC)c3)n2)cc1OC | 86 °C |
| N#CCc1cc(F)cc(Cc2nc3c(F)c(F)cc(F)c3s2)c1 | 91 to 94 °C |
| COc1cc(-c2nc3ccc(O)cc3n2Cc2ccccc2C(F)(F)F)cc(OC)c1OC | 191 °C |
| CCOC(=O)c1cncc(C#N)c1 | 58 to 59 °C |
| C=C(C)COc1ccc(C(=O)C=Cc2c[nH]c3ccccc23)c(O)c1 | 29 to 30 °C |
| CCCNC(=O)N(Cc1ccccc1)NC(=O)OC(C)(C)C | 123 to 124 °C |
| Cc1nc2cc(Br)cc(Br)c2o1 | 122 to 124 °C |
| C[C@H](CO)Nc1cc(-n2cccn2)nc(-c2cccs2)n1 | 136 to 137 °C |
| COC(=O)NC1CCC(Nc2ncc3c(N)cc(=O)n(CCCO)c3n2)CC1 (stereo unspecified) | 190 to 191 °C |
| Cc1oc(-c2ccccc2)nc1COc1ccc(O)cc1 | 168 to 169 °C |
| CC(CO)N1c2ccccc2Sc2ccc(C#N)cc21 (racemic) | 123 °C |
| O=C(CC(CCCc1ccccc1)C(=O)O)c1ccc2c3c(oc2c1)CCCC3 (stereo unspecified) | 142 to 144 °C |
| Cn1cc(S(=O)(=O)C(F)(F)F)c(-c2ccc(Cl)cc2)c1Cl | 117 to 119 °C |
| CC(Oc1ncn(-c2cccc(Cl)c2)n1)C(N)=O (stereo unspecified) | 143 to 145 °C |
| CN1C(=O)C(c2cc[nH]c2)(c2cccc(OCc3ccccc3)c2)N=C1N (stereo unspecified) | 98 to 100 °C |
| O=C1CCCNc2ccc(Br)cc21 | 99 to 101 °C |
| O=c1c2ccc(Cl)cc2[nH]c2c(O)nn(CCN3CCN(c4ccccc4)CC3)c(=O)c12 | 361 to 364 °C |
| NCc1ccc(C(=O)O)cc1[N+](=O)[O-] | 235 to 237 °C |
| CCOCCOC(=O)C1=C(C)NC(COC(N)=O)=C(C(=O)OCC)C1c1cccc([N+](=O)[O-])c1 (stereo unspecified) | 135 to 138 °C |
| CC1CC(C)(C)c2cccc(NC(=O)c3cn(C)nc3C(F)F)c21 (stereo unspecified) | 131 to 134 °C |
| COc1ccccc1Oc1c(OC)nn(C)c1NS(=O)(=O)c1ccc(C(C)(C)C)cc1 | 188 °C |
| N=C(NCC1(c2ccc(Cl)cc2)CC1)NN=Cc1c(Cl)cccc1Cl | 126 to 128 °C |
| CC(=O)CC(=O)NC(=O)C(C)C | 148 to 160 °C |

| SMILES | melting point |
| --- | --- |
| CC1(C)CN(CCN2CC(C)(C)N(O)C(C)(C)C2=O)C(=O)C(C)(C)N1O | 193 °C |
| CCCc1c(OCCCSc2ccc(C(=O)CCC(=O)O)cc2)ccc(C(C)=O)c1OC(C)=O | 121 to 123 °C |
| COC(=O)c1cnc(N)c([N+](=O)[O-])c1 | 195 to 196 °C |
| CN1C(C(=O)OCCO)=C(O)c2ccccc2S1(=O)=O | 122 to 123 °C |
| COc1ccc(-c2nc(C(=O)Nc3nccs3)c(-c3ccc(C)cc3)[nH]2)c2ccccc12 | > 250 °C |
| COc1ccc(-c2ccc(C(=O)Nc3ccc4cc(CN5CCCCCC5)cnc4c3C)c(F)c2)cc1 | 171 to 172 °C |
| NC(=O)c1ccc(CCCNCC(O)COc2ccccc2)s1 (racemic) | 129 to 130 °C |
| CCc1cc(/C=C/[N+](=O)[O-])ccc1N=C1SCC2(CCCC2)N1C1CCCC1 | 141 to 142 °C |
| O=c1[nH]ccn1-c1ccc(OCC(F)(F)C(F)F)cc1 | 157 to 159 °C |
| O=C1NC(=O)C(c2ccccc2)(c2ccc(Br)cc2)N1 (stereo unspecified) | 237 to 239 °C |
| COC(=S)c1ccnc(C)n1 | 68 °C |
| Cc1nc2ccccc2n1Cc1c(F)cccc1F | 99 °C |
| Cc1cc(CO)ccc1NC(=O)N1CCN(c2ccc(NC(=O)Nc3ccccc3F)cc2)CC1 | 229 to 230 °C |
| O=[N+]([O-])c1cc(OCc2ccccc2)ccc1CCCl | 38 to 40 °C |
| COc1ccc(C(=O)NCCCN2CCN(C(c3ccccc3)c3ccccc3)CC2)cc1 | 126 to 128 °C |
| COc1c(C(=O)NC2CN3CCC2CC3)cc(Cl)c2c1CCN2 (stereo unspecified) | 107 to 109 °C |
| Cc1nccn1-c1ccc(-c2cnc([C@H](Cc3ccccn3)N(C=O)c3cc4cc(Cl)ccc4o3)n2C)cc1 | 159 to 161 °C |
| CC(Cl)C(=O)c1ccc2c(c1)CC(=O)N2 (stereo unspecified) | 157 to 158 °C |
| Clc1ccc(CNc2nc(Cl)cc(Cl)n2)cc1 | 154 to 157 °C |
| CC(C)N=C(N)Nc1ccnc(OCCCO)n1 | 181 to 183 °C |
| Cn1c(C(=O)O)cc2c3c(c(-c4ccccc4Cl)cc21)C(=O)NC3=O | 301 to 302 °C |
| COc1cc2nc(N)nc(-c3ccc(O)c(F)c3)c2cc1OC | 268 to 270 °C |
| CCCCCCCCCCCCCCCc1cccc(OC)c1C1NC(=O)NC(C)=C1C(=O)OC (stereo unspecified) | 101 to 102 °C |
| CC(=CC(N)[C@@H]1CN(c2ccc(-c3cccnc3)cn2)C(=O)O1)[N+](=O)[O-] (stereo partly specified) | 207 °C |

| SMILES | melting point |
| --- | --- |
| CS(=O)(=O)Nc1c(C(=O)c2cccc(Cl)c2)[nH]c2ccc(Cl)cc12 | 220 to 221 °C |
| CCCN1CCCC1Cc1cccc(NC(N)=O)c1 (stereo unspecified) | 101 to 104 °C |
| COc1cc(C)ccc1Oc1ccc(Br)cc1O | 75 to 76 °C |
| CCN1c2ncc(CCc3ccnc(O)c3)cc2C(=O)N(C)c2ccc(Cl)nc21 | 243 to 244 °C |
| O=C1c2cccc(F)c2-n2c1nc1ccccc1c2=O | 264 to 267 °C |
| CS(C)=NS(=O)(=O)c1ccc(N2CC(CO)OC2=O)cc1 (stereo unspecified) | 162 to 164 °C |
| Cc1nc(N2CCN(Cc3ccccc3)C2=O)sc1C(=O)NCc1cc(F)ccc1F | 176 to 177 °C |
| O=C(Nc1nc2ccc(C(F)(F)F)cc2s1)c1c(F)cccc1Cl | 265 to 270 °C |
| CCOP(=O)(NCc1ccc2c(c1)-c1n[nH]c(=O)c3cccc(c13)O2)OCC | 222 to 224 °C |
| COP(=O)(CC(=O)[C@H](Cc1ccccc1)NC(=O)OC(C)(C)C)OC | 76 to 78 °C |
| Cc1c(CC(=O)OCCCO)cc(-c2ccc(S(C)(=O)=O)cc2)n1-c1ccccc1 | 108 to 110 °C |
| COc1ccc(C2=NN(Cc3ccccc3N)C(=O)SC2)cc1OC | 105 °C |
| CN(N=Cc1ccccc1)C(=NC(=O)CN1C(=O)c2ccccc2C1=O)NCCCOc1cccc(CN2CCCCC2)c1 | 84.5 °C |
| CCc1nnc(Cc2ccc(NC(=O)/C=C/c3cnn(C)c3-c3ccc(F)cc3)cc2)o1 | 164 to 165 °C |
| CCc1nn2c(-c3ccc(Cl)cc3Cl)cnnc2c1C(CC)CC | 117 to 118 °C |
| NC(=O)c1ccc([N+](=O)[O-])c(N2CC2)c1 | 223 to 224 °C |
| CCOC(=O)C(CC(=O)c1cccc(Cl)c1)(NC(C)=O)C(=O)OCC | 84 to 86 °C |
| CC1(C)CC(C)(C)CC(CCCc2ccccc2)(NC(=O)CCl)C1 | 83 to 85 °C |
| CC(C)OC(=O)c1cc(-n2c(=O)[nH]c3c(c2=O)CCCC3)ccc1Cl | 205 to 207 °C |
| Cc1nnc(-c2ccc3occ(-c4cc(F)ccc4F)c3n2)o1 | 185 to 186 °C |
| C=CCC(CC=C)(CC=C)c1ccc(-c2nc3cc(C#N)c(C#N)cc3[nH]2)cc1 | 264 to 266 °C |
| O=C(NC1CC1)c1ccc(N2CCNCC2)c(F)c1 | 141 to 143 °C |

Further lines, results first:

| melting point | SMILES |
| --- | --- |
| 138 to 139 °C | OCC(O)CN1CCN(c2nccs2)CC1 (stereo unspecified) |
| 89 to 91 °C | COC(=O)c1cccc(-c2ncc(OCCN3CCOCC3)cn2)c1 |
| 173 to 178 °C | N=C(N)NCCc1ccc(OCCC2Oc3ccccc3N(Cc3ccc4ccccc4c3)C2=O)cc1 (stereo unspecified) |
| 186 to 188 °C | CC(C)CNc1cccc(-c2ccnc3c(C(=O)c4cccs4)cnn23)c1 |
| 227 to 230 °C | COc1cc2c(cc1-c1ccc(F)cc1)C(=CNc1ccc(CN3CCCCC3)cc1)C(=O)NC2=O |
| 221 °C | O=C(CCl)Nc1ccc(NC(=O)CCl)c2c1C(=O)c1ccccc1C2=O |
| 232 to 233 °C | Cc1c(S(=O)(=O)c2ccc(=O)[nH]n2)oc2cccc(Cl)c12 |
| 250 to 252 °C | O=C1CCC(N2Cc3c(CNC(=O)Nc4cccc(Cl)c4)cccc3C2=O)C(=O)N1 (stereo unspecified) |
| 170 °C | CCCCc1nc(O)c(CC(=O)OCC)c(=O)n1Cc1ccc(C(=O)OC)cc1 |
| 71 to 72 °C | CCCCC1COC(=S)N1 (stereo unspecified) |
| 208 to 211 °C | Cc1cnn(-c2ccccc2)c1-c1nn(-c2cccc(C(F)(F)F)c2)ccc1=O |
| 119 to 120 °C | CCOC(=O)NC(=S)Nc1ccc(C(=O)OC(C)(C)C)cc1 |
| 160 °C | COC(=O)c1ccc(NS(C)(=O)=O)c(C=NO)c1 |
| 156 to 158 °C | O=C(O)CNC(=O)c1ccc([N+](=O)[O-])cc1F |
| 220 °C | CSc1nccn1CC(=O)NC1C(=O)N2C(C(=O)O)=C(CSc3nnc(C)s3)CSC12 (stereo unspecified) |
| 106 to 109 °C | CCCCCCC1=CC(O)(C(Br)Br)NC1=O (stereo unspecified) |

| melting point | SMILES |
| --- | --- |
| 98 to 99 °C | CNc1c(OC)cc(C(=O)CS(C)(=O)=O)cc1OC |
| 224 to 225 °C | O=C1NCC=NN1c1cc(Cl)c(Sc2ccc(Cl)cc2)c(Cl)c1 |
| 221 to 222 °C | COc1cc(COc2nn(-c3ccccc3)cc2C=CC(=O)NNC(C)=O)ccc1OCc1nc(-c2ccco2)oc1C |
| 222 to 224 °C | COc1cccc(CNc2cc(C(N)=O)c([N+](=O)[O-])cc2[N+](=O)[O-])c1 |
| 233 °C | Cn1nc2c(sc3ccccc32)c1N |
| 240 to 242 °C | N#Cc1cnc2c(sc3ccccc32)c1Nc1cccc(Br)c1 |
| 100 to 102 °C | CCC(CC)c1nc(-c2ccncc2)c(-c2ccc(Cl)cc2)n1C |
| 71 to 72 °C | COC(=O)Nc1ccc(Br)c(C)c1 |
| 214 to 215 °C | CCCCC[C@H]1CC[C@H](/C=C/COc2ccc(C(=O)O)cc2)CC1 |
| 221 to 222 °C | CC(C)CCCC(C)C1C=CC2(CC(=O)O)C3=C(CCC12C)C1(C)CCC(O)CC1CC3 (stereo unspecified) |
| 189 to 192 °C | CCC(C)(C)NC(Nc1cc(Cl)cc(Cl)c1)=C(C#N)S(=O)(=O)c1ccc(Cl)cc1 |
| 118 to 119 °C | CSc1ncccc1NC(=O)CCCCCSc1nc2ccccc2s1 |
| 131 to 133 °C | O=C(OCc1ccc(-c2ccc(N3C[C@H](Cn4ccnn4)OC3=O)cc2F)cn1)N1CCOCC1 |
| 150 °C | O=C1C(=Cc2ccccc2)C(=O)c2ccccc21 |
| 170 to 172 °C | O=C1C=CC(O)(c2cc3ccccc3n2S(=O)(=O)c2ccccc2)C=C1 |
